# Compound: CC(C)CCN1c2nc(Nc3cc(F)c(O)c(F)c3)ncc2N(C)C(=O)C1C [BI-D1870] + C[C@@H](Oc1cc(-c2cnn(C3CCNCC3)c2)cnc1N)c1c(Cl)ccc(F)c1Cl [Crizotinib] (partner 1 µM)
# Assay: relative viability (nuclei count vs DMSO), 5 days (fraction); higher = more cells survive
# Settings: first compound 4 µM
# Procedure, shortened: (§1)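 For relative viability, nuclei counts in treated wells were divided by those in vehicle wells. Lung cancer cell lines had been pin-tool dosed in 1536-well plates the day after seeding and cultured for 5 days, then fixed and stained in one step (final 0.05% Triton X-100, 1% formaldehyde, 1 ug/ml Hoechst) and imaged at 4×. Doses were one drug alone or a fixed anchor-drug dose plus five library-drug doses (not always all listed) in √10 steps, and values are duplicate-plate medians.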
row,Cell Line,relative viability
1,NCI-H2170,1.06
2,NCI-H2405,0.795
3,HOP-62,0.915
4,HCC-44,0.829
5,A549,0.158
6,NCI-H441,0.448
7,NCI-H1299,0.814

# Compound: CC(C)CCN1c2nc(Nc3cc(F)c(O)c(F)c3)ncc2N(C)C(=O)C1C [BI-D1870] + CS(=O)(=O)CCNCc1ccc(-c2ccc3ncnc(Nc4ccc(OCc5cccc(F)c5)c(Cl)c4)c3c2)o1 [Lapatinib] (partner 2 µM)
# Assay: as above
# Settings: first compound 0.04 µM
# Procedure, shortened: as §1
row,Cell Line,relative viability
1,NCI-H727,1.15
2,NCI-H1650,0.822
3,EBC-1,0.195
4,NCI-H1703,1.07
5,NCI-H1993,0.855
6,SW 1573,1.13
7,NCI-H838,1.13
8,NCI-H520,1
9,NCI-H2126,0.814
10,EMC-BAC-2,0.823
11,NCI-H2085,0.731
12,Calu-6,1.07
13,HCC-366,1.09
14,NCI-H1666,0.825
15,NCI-H596,1.05
16,LK-2,1.01

row,Cell Line,relative viability
1,NCI-H2087,1.14
2,SK-MES-1,0.468
3,H3255,0.221
4,COR-L23,1.07
5,COR-L 105,0.387
6,IA-LM,0.972
7,LOU-NH91,0.837
8,NCI-H2170,0.309
9,NCI-H2405,1.16
10,HOP-62,1.07
11,HCC-44,1.05
12,A549,1.16
13,NCI-H1395,1.13
14,NCI-H1299,0.903
15,NCI-H1793,0.937

# Same assay, conditions: first compound 0.1265 µM
row,Cell Line,relative viability
1,NCI-H727,0.819
2,NCI-H1650,0.715
3,EBC-1,0.19
4,NCI-H1703,0.732
5,NCI-H1993,0.774
6,SW 1573,1.16
7,NCI-H838,0.942
8,NCI-H520,0.714
9,NCI-H2126,0.741
10,EMC-BAC-2,0.887
11,NCI-H2085,0.71
12,Calu-6,0.977
13,HCC-366,1.01
14,NCI-H1666,0.543
15,NCI-H596,1.03
16,LK-2,0.888

row,Cell Line,relative viability
1,NCI-H2087,1.09
2,SK-MES-1,0.443
3,H3255,0.266
4,COR-L23,0.929
5,COR-L 105,0.363
6,IA-LM,0.906
7,LOU-NH91,0.717
8,NCI-H2170,0.238
9,NCI-H2405,1.03
10,HOP-62,1.08
11,HCC-44,1.04
12,A549,0.875
13,NCI-H1395,0.895
14,NCI-H1299,0.957
15,NCI-H1793,0.557

# Same assay, conditions: first compound 0.4 µM
row,Cell Line,relative viability
1,NCI-H727,0.786
2,NCI-H1650,0.721
3,EBC-1,0.205
4,NCI-H1703,1.29
5,NCI-H1993,0.88
6,SW 1573,1.11
7,NCI-H838,1.1
8,NCI-H520,0.846
9,NCI-H2126,0.768
10,EMC-BAC-2,0.815
11,NCI-H2085,0.739
12,Calu-6,1.09
13,HCC-366,1
14,NCI-H1666,0.639
15,NCI-H596,1.19
16,LK-2,0.985

row,Cell Line,relative viability
1,NCI-H2087,1.34
2,SK-MES-1,0.417
3,H3255,0.258
4,COR-L23,0.992
5,COR-L 105,0.355
6,IA-LM,0.862
7,LOU-NH91,0.782
8,NCI-H2170,0.278
9,NCI-H2405,1.05
10,HOP-62,0.934
11,HCC-44,1.02
12,A549,1.06
13,NCI-H1395,0.989
14,NCI-H1299,0.95
15,NCI-H1793,0.679

# Same assay, conditions: first compound 1.265 µM
row,Cell Line,relative viability
1,NCI-H727,1.18
2,NCI-H1650,0.753
3,EBC-1,0.188
4,NCI-H1703,1.11
5,NCI-H1993,0.809
6,SW 1573,1.25
7,NCI-H838,1.24
8,NCI-H520,0.619
9,NCI-H2126,0.85
10,EMC-BAC-2,0.951
11,NCI-H2085,0.926
12,Calu-6,0.931
13,HCC-366,1.21
14,NCI-H1666,0.909
15,NCI-H596,1.09
16,LK-2,1.04

row,Cell Line,relative viability
1,NCI-H2087,1.36
2,SK-MES-1,0.509
3,H3255,0.296
4,COR-L23,0.798
5,COR-L 105,0.407
6,IA-LM,0.614
7,LOU-NH91,0.837
8,NCI-H2170,0.275
9,NCI-H2405,1.32
10,HOP-62,1.06
11,HCC-44,0.961
12,A549,0.908
13,NCI-H1395,1.13
14,NCI-H1299,0.915
15,NCI-H1793,1.03

# Same assay, conditions: first compound 4 µM
row,Cell Line,relative viability
1,NCI-H727,0.673
2,NCI-H1650,0.738
3,EBC-1,0.158
4,NCI-H1703,0.796
5,NCI-H1993,0.789
6,SW 1573,1.14
7,NCI-H838,1.02
8,NCI-H520,0.704
9,NCI-H2126,0.693
10,EMC-BAC-2,0.899
11,NCI-H2085,0.654
12,Calu-6,0.868
13,HCC-366,0.389
14,NCI-H1666,0.383
15,NCI-H596,1.05
16,LK-2,0.977

row,Cell Line,relative viability
1,NCI-H2087,0.877
2,SK-MES-1,0.356
3,H3255,0.244
4,COR-L23,0.982
5,COR-L 105,0.335
6,IA-LM,0.213
7,LOU-NH91,0.677
8,NCI-H2170,0.234
9,NCI-H2405,1.1
10,HOP-62,0.825
11,HCC-44,1.1
12,A549,0.992
13,NCI-H1395,0.79
14,NCI-H1299,0.743
15,NCI-H1793,0.971

# Compound: CC(C)CCN1c2nc(Nc3cc(F)c(O)c(F)c3)ncc2N(C)C(=O)C1C [BI-D1870] + C[C@]1(O)C[C@@H](c2nc(-c3ccc4ccc(-c5ccccc5)nc4c3)c3c(N)nccn32)C1 [Linsitinib] (partner 1 µM)
# Assay: as above
# Settings: first compound 0.04 µM
# Procedure, shortened: as §1
row,Cell Line,relative viability
1,NCI-H727,0.323
2,EBC-1,1.17
3,NCI-H1993,0.812
4,SW 1573,0.768
5,NCI-H838,1.13
6,LCLC-103H,1.17
7,NCI-H520,1
8,NCI-H2126,0.724
9,EMC-BAC-2,0.864
10,NCI-H2085,0.93
11,Calu-6,1.04
12,HCC-366,0.919
13,NCI-H1666,0.921
14,NCI-H596,1.13
15,LK-2,0.616
16,NCI-H2087,1.09
17,SK-MES-1,1.06
18,H3255,0.94
19,COR-L23,0.896
20,COR-L 105,1.11
21,IA-LM,0.824
22,LOU-NH91,0.98
23,NCI-H2405,1.07
24,HOP-62,1.25
25,HCC-44,0.718
26,A549,0.703
27,NCI-H441,0.871
28,NCI-H1395,1.11
29,NCI-H1299,1.04
30,NCI-H1793,0.824

# Same assay, conditions: first compound 0.1265 µM
row,Cell Line,relative viability
1,NCI-H727,0.328
2,EBC-1,0.616
3,NCI-H1703,0.405
4,NCI-H1993,0.739
5,SW 1573,0.756
6,NCI-H838,0.962
7,LCLC-103H,1.02
8,NCI-H520,0.846
9,NCI-H2126,0.712
10,EMC-BAC-2,0.748
11,NCI-H2085,0.81
12,Calu-6,0.896
13,HCC-366,0.538
14,NCI-H1666,0.814
15,NCI-H596,1.07
16,LK-2,0.518

row,Cell Line,relative viability
1,NCI-H2087,1.02
2,SK-MES-1,1.05
3,H3255,0.959
4,COR-L23,0.927
5,COR-L 105,0.813
6,IA-LM,0.229
7,LOU-NH91,0.908
8,NCI-H2405,0.839
9,HOP-62,0.997
10,HCC-44,0.667
11,A549,0.57
12,NCI-H441,0.429
13,NCI-H1395,0.922
14,NCI-H1299,0.909
15,NCI-H1793,0.578

# Same assay, conditions: first compound 0.4 µM
row,Cell Line,relative viability
1,NCI-H727,0.252
2,EBC-1,0.75
3,NCI-H1703,0.635
4,NCI-H1993,0.726
5,SW 1573,0.89
6,NCI-H838,0.998
7,LCLC-103H,1.05
8,NCI-H520,0.985
9,NCI-H2126,0.694
10,EMC-BAC-2,0.792
11,NCI-H2085,0.896
12,Calu-6,0.889
13,HCC-366,0.53
14,NCI-H1666,0.865
15,NCI-H596,1.05
16,LK-2,0.512

row,Cell Line,relative viability
1,NCI-H2087,1.17
2,SK-MES-1,1.02
3,H3255,0.935
4,COR-L23,0.92
5,COR-L 105,0.926
6,IA-LM,0.733
7,LOU-NH91,0.996
8,NCI-H2405,0.901
9,HOP-62,1.13
10,HCC-44,0.679
11,A549,0.588
12,NCI-H441,0.481
13,NCI-H1395,1.14
14,NCI-H1299,0.995
15,NCI-H1793,0.794

# Same assay, conditions: first compound 1.265 µM
row,Cell Line,relative viability
1,NCI-H727,0.371
2,EBC-1,0.582
3,NCI-H1703,0.772
4,NCI-H1993,0.703
5,SW 1573,0.771
6,NCI-H838,1.13
7,LCLC-103H,1.36
8,NCI-H520,0.803
9,NCI-H2126,0.73
10,EMC-BAC-2,0.802
11,NCI-H2085,0.885
12,Calu-6,0.884
13,HCC-366,0.763
14,NCI-H1666,0.843
15,NCI-H596,1.17
16,LK-2,0.497

row,Cell Line,relative viability
1,NCI-H2087,1.01
2,SK-MES-1,0.902
3,H3255,1.1
4,COR-L23,0.996
5,COR-L 105,0.856
6,IA-LM,0.983
7,LOU-NH91,0.986
8,NCI-H2405,1.06
9,HOP-62,1.04
10,HCC-44,0.712
11,A549,0.649
12,NCI-H441,0.493
13,NCI-H1395,1.2
14,NCI-H1299,1.02
15,NCI-H1793,0.84

# Same assay, conditions: first compound 4 µM
row,Cell Line,relative viability
1,NCI-H727,0.261
2,EBC-1,0.682
3,NCI-H1703,0.728
4,NCI-H1993,0.797
5,SW 1573,0.63
6,NCI-H838,0.957
7,LCLC-103H,1.06
8,NCI-H520,0.678
9,NCI-H2126,0.677
10,EMC-BAC-2,0.799
11,NCI-H2085,0.68
12,Calu-6,0.744
13,HCC-366,0.623
14,NCI-H1666,0.872
15,NCI-H596,1.07
16,LK-2,0.457

row,Cell Line,relative viability
1,NCI-H2087,0.699
2,SK-MES-1,0.705
3,H3255,0.907
4,COR-L23,0.536
5,COR-L 105,0.666
6,IA-LM,0.604
7,LOU-NH91,0.769
8,NCI-H2405,0.909
9,HOP-62,0.91
10,HCC-44,0.634
11,A549,0.573
12,NCI-H441,0.518
13,NCI-H1395,0.85
14,NCI-H1299,0.933
15,NCI-H1793,0.932

# — the supplement of paper PMC10307832
